Source: US20180168160A1, “MICROBICIDAL COMPOSITION” (Rohm and Haas Company, priority 2015, published 2018)
Like-named read-outs stand apart in the source and are kept apart here.

Legend:
[1] = system: consortium of selected bacterial species, Escherichia coli (ATCC #25922), Pseudomonas aeruginosa (ATCC #9027, Staphylococcus aureus (ATCC #6538) and Klebsiella …); test: Synergy test, high resolution MIC microtiter plate assay against a bacterial consortium; format: cell-based; conditions: M9GY medium, 35° C., 24 hrs, visual turbidity, active ingredient basis
Text: (§1) One measure of synergism is the industrially accepted method described by Kull, F. C.; Eisman, P. C.; Sylwestrowicz, H. D. and Mayer, R. L., in Applied Microbiology 9:538-541 (1961), using the ratio determined by the formula: Qa/QA+Qb/QB=Synergy Index (“SI”) wherein: QA=concentration of compound A (first component) in ppm, acting alone, which produced an end point (MIC of Compound A). QA=concentration of compound A in ppm, in the mixture, which produced an end point. QB=concentration of compound B (second component) in ppm, acting alone, which produced an end point (MIC of Compound B). Qb=concentration of compound B in ppm, in the mixture, which produced an end point.
(§2) When the sum of Qa/QA and Qb/QB is greater than one, antagonism is indicated. […] The lower the SI, the greater the synergy shown by that particular mixture. The minimum inhibitory concentration (MIC) of a microbicide is the lowest concentration tested under a specific set of conditions that prevents the growth of added microorganisms.
(§3) Synergy tests were conducted using standard microtiter plate assays with media designed for optimal growth of the test microorganism. Minimal salt medium supplemented with 0.2% glucose and 0.1% yeast extract (M9GY medium) was used for testing bacteria. In this method, a wide range of combinations of microbicides was tested by conducting high resolution MIC assays in the presence of various concentrations of DMDMH and Dazomet or THNM and Dazomet. High resolution MICs were determined by adding varying amounts of microbicide to one column of a microtiter plate and doing subsequent […] dilutions using an automated liquid handling system to obtain a series of endpoints ranging from 2 ppm to 1,000 ppm active ingredient.
(§4) The synergy of the combinations of the present invention was determined against a consortium of selected bacterial species, Escherichia coli (ATCC #25922), Pseudomonas aeruginosa (ATCC #9027, Staphylococcus aureus (ATCC #6538) and Klebsiella pneumoniae (ATCC #13883). The consortium was prepared using approximately 1×10^6 CFU per mL of each species. These microorganisms are representative of natural contaminants in many industrial applications. The plates were visually evaluated for microbial growth (turbidity) to determine the MIC after selected incubation times at 35° C. after 24 hrs.
(§5) In each test, Second Component (B) was Dazomet and the First Component (A) was DMDMH.

[2] = as above; format: cell-based; conditions: M9GY medium, 35° C., 24 hrs, visual turbidity, active ingredient basis
Text: as §1, §2, §3, §4, §5

**Q.** For CC1(C)C(=O)N(CO)C(=O)N1CO [DMDMH, dimethylol-dimethylhydantoin], which “MIC of DMDMH alone (QA)” value ([1]; Table 1) is on record?
**A.** The value was 200 mg/L.

**Q.** Which “MIC of Dazomet alone (QB)” value ([1]; Table 2) does the source give for CN1CSC(=S)N(C)C1 [Dazomet, 3,5-dimethyl-1,3,5-thiadiazinane-2-thione] here?
**A.** The value was 100 mg/L.

**Q.** What about the MIC ([2]; Table 1, read-out: MIC of Dazomet alone (QB)) of the same compound?
**A.** Its MIC is 100 mg/L.

**Q.** For O=[N+]([O-])C(CO)(CO)CO [THNM, tris(hydroxymethyl)nitromethane], which MIC ([2]; Table 2, read-out: MIC of THNM alone (QA)) is on record?
**A.** Its MIC is 400 mg/L.
